Data published in patent US20200405715A1, “COMPOSITIONS AND METHODS FOR TREATING CANCER AND INFLAMMATORY DISEASES” (University of Pittsburgh - Of the Commonwealth System of …, priority 2016, published 2020).

Assays:
Assay type in all cases: cell-based
Nedd8-cullin = experiment: Cullin neddylation, protein immunoblotting in HepG2 cells
Excerpt: Cells were then collected and assayed for protein immunoblotting. […]
DCN1 protein is believed to harbor a UBC12 binding pocket. Scott et al, Cell 757:1671-84 (2014). […] Scott et al. (2014). The N-terminal acetylation acts as an avidity enhancer within an interconnected multiprotein complex. Science, 554:674-8 (2011). Specifically, n-terminal of UBC12 is acetylated (FIG. 1A, yellow) and completely buried inside the hydrophobic pocket within DCN1 (4gao.PDB, FIG. 1B). Small molecule inhibition of the DCN1 hydrophobic pocket would presumably disrupt UBC12 binding, and thus disrupt Neddylation of Cullin protein. Potential ligands were assessed that might fit the DCN1 domain cavities (FIG. 1B). 3-(pentylamino)-5-phenylcyclohex-2-en-1-one was selected for future testing (FIG. 1C). […] MLN4924 was used as a positive control.

HepG2 cells = experiment: Mitotic spindle immunostaining (α-tubulin, DAPI); details: 1 uM, 24 h (FIG. 7B)
Procedure: Cells were then washed with PBS and fixed with 4% paraformaldehyde for 20 min. Cells were co-immunostained for either α-tubulin. Cells were counterstained with DAPI to visualize the nucleus.
The integrity of the centrosome and mitotic spindles after 3-(decylamino)-5-phenylcyclohex-2-en-1-one treatment was examined. HepG2 cells were stained with antibody to α-tubulin to visualize the mitotic spindle (FIG. 7A-B). […] The circular prophase configurations were observed (FIG. 7B, top panel). One classic phenotype of the circular chromosome configuration is circular figures arranged on monopolar spindles around large centrosomes. No spindles assembly in metaphase was observed (FIG. 7B, lower panel).

human lung tissue = experiment: LPS-treated human lung slices, cytokines and immunoblotting
Procedure: Cells were then treated with LPS (10 ng/ml) for additional 2 h. Media were then collected and TNF concentration was determined by ELISA. […] Lung tissue was collected and assayed for immunoblotting. Culture media was collected and assayed for cytokines.
3-(decylamino)-5-phenylcyclohex-2-en-1-one was next tested in human lung tissue. Human lung slices were pretreated with 3-(decylamino)-5-phenylcyclohex-2-en-1-one for 18 h before LPS treatment (100 ng/ml) for additional 4 h. […] 3-(decylamino)-5-phenylcyclohex-2-en-1-one reduced nedd8-cullins level and rescued IκBα in a dose dependent manner.

[1] = human lung slices, dose dependent

**Q.** With CCCCCCCCCCNC1=CC(=O)CC(c2ccccc2)C1 (centres unmarked) [BC1558, 3-(decylamino)-5-phenylcyclohex-2-en-1-one] as the molecule, how does the “neddylation of several cullin isoforms” value (Nedd8-cullin; 10 μM, time dependent (FIG. 6A)) read?
**A.** The value was “drastically reduced”.

**Q.** What about the “neddylation of several cullin isoforms” value (Nedd8-cullin; 48 h, dose dependent (FIG. 5A)) of the same molecule?
**A.** Its value is “drastically reduced”.

**Q.** What about the “activity compared with MLN4924” value (Nedd8-cullin; 48 h, various concentration (FIG. 4)) of the same molecule?
**A.** Its value is “comparable activity”.

**Q.** What about the “reducing Cullin Neddylation” value (Nedd8-cullin; 48 h, various concentrations (FIG. 3C)) of the same molecule?
**A.** Its value is “exhibited activity”.

**Q.** And the “integrity of the centrosome and mitotic spindles” value (HepG2 cells)?
**A.** The value was “Abnormal cells with several representative mitotic abnormalities were also detected”.

**Q.** What about the IκBα (human lung tissue; [1]) of the same molecule?
**A.** The IκBα was “rescued”.

**Q.** What about the nedd8-cullins level (human lung tissue; [1]) of the same molecule?
**A.** The nedd8-cullins level was “reduced”.

**Q.** What about the “LPS induced IL1, IL6 and TNF release from lung tissue” value (human lung tissue; pretreated 18 h, LPS 100 ng/ml for 4 h) of the same molecule?
**A.** The value was “potently inhibited”.
